BigSolDB 2.1

CC(C)(c1ccc(O)cc1)c1ccc(O)cc1
solubility (mole fraction)
Conditions	273.15 K	278.15 K	283.15 K	288.15 K	293.15 K	298.15 K	303.15 K	308.15 K	313.15 K
in 1,4-dioxane	–	–	–	0.205	0.224	0.245	0.264	0.285	0.307
in DMF	0.298	0.308	0.324	0.342	0.361	0.383	0.409	0.43	0.452
in acetone	0.293	0.301	0.311	0.321	–	–	–	–	–
in acetonitrile	0.135	0.141	0.15	0.16	0.169	0.176	0.185	0.196	0.207
in cyclohexanone	0.0936	0.111	0.126	0.142	0.158	0.176	0.195	0.215	0.235
in ethanol	0.21	0.215	0.221	0.227	0.233	0.24	0.246	0.253	0.26
in ethyl acetate	0.235	0.237	0.24	0.243	0.246	0.251	0.255	0.26	0.265
in formamide	–	0.14	0.151	0.164	0.178	0.193	–	0.231	0.252
in isopropanol	0.0503	0.0603	0.0719	0.0858	0.097	0.111	0.123	0.139	0.153
in methanol	0.187	0.19	0.194	0.198	0.202	0.207	0.212	0.217	0.223
in methyl acetate	0.236	0.237	0.239	0.241	0.246	0.249	0.253	0.257	0.261
in n-butanol	0.0748	0.0833	0.0942	0.108	0.12	0.136	0.149	0.163	0.181
in n-propanol	0.176	0.18	0.188	0.195	0.2	0.207	0.214	0.22	0.225
in sec-butanol	0.0342	0.0397	0.0472	0.0566	0.0654	0.0735	0.083	0.093	0.104
